Laboratory results as given in patent US7790762B2, “Compounds and methods for thiol-containing compound efflux and cancer treatment” (National Jewish Health, priority 2002, dated 2010).
Like-named read-outs stand apart in the source and are kept apart here. Marks after values point to notes of the source that are not given here.

Columns and labels:
A549 cells [1] = test: Intracellular GSH levels by HPLC-EC in A549 cells; type: cell-based, human
Method: (§1) Cell lines and culture conditions. Human lung epithelial cancer (A549), human leukemia HL-60 and human prostate (PC-3) tumor cells were purchased from ATCC (Manassas, Va.). A549 and PC-3 cells were grown in Ham's F12 medium (F12) and Kaighn's modification of Ham's F12 medium (F12K) with 2 mM L-glutamine (ATCC), respectively, supplemented with 10% fetal bovine serum (FBS) and 5% pen/strep (10,000 unit, Cellgro). HL-60 cells were grown in Iscove's modified Dulbecco's medium with 4 mM L-glutamine (ATCC) supplemented with 20% FBS and 5% pen/strep. Cell were grown in T-75 flask at 37° C. and 5% CO2 air atmosphere and in 24-well plates for GSH levels and LDH release measurements.
(§2) Intracellular levels of GSH. Intracellular GSH levels can be determined by HPLC-EC. Cultured cells from 24-well plates were washed once with 1 ml of PBS and then re-suspended in 0.5 ml of distilled water with 40 μM of digitonin (2 mM stock solution in DMSO) for 30 min at room temperature. Then, 50 μl of 10% meta-phosphoric acid were added (1% final concentration), the samples were sonicated for 2 min, centrifuged at 20,000 g for 10 min, and 0.2 ml of supernatant placed in vials for HPLC analysis. […] The flow rate was […]. The retention time for GSH in these conditions was 7.5 min. The HPLC instrument was from ESA, Inc. (Chelmsford, Mass.), equipped with an autosampler (model 540) and a Coul array detector (model 5600A). The potential applied was +0.75 V vs. H/Pd electrode, and the injection volume 5 μl.

epithelial cells [2] = test: Effects of compounds on extracellular GSH transport (Table 3); type: cell-based
HL-60 cells [3] = test: Intracellular GSH levels by HPLC-EC in HL-60 cells; type: cell-based, human; settings: for activity at 25 µM: HL-60, 25 μM; for Int. GSH % con.: HL-60, 75 μM
Method: as §1, §2

PC-3 cells [4] = test: Intracellular GSH levels by HPLC-EC in PC-3 cells; type: cell-based, human; settings: for activity at 25 µM: Homo sapiens, read-out: Int. GSH % con.
Method: as §1, §2

A549 cells [5] = test: Cytotoxicity as LDH release in A549 cells; type: cell-based, human; settings: for LDH rel. % con. / LDH release, % of control at 75 µM: A549, 75 μM
Method: as §1
(§3) Assessment of cytotoxicity. In one exemplary method, membrane integrity of A549, HL-60 and PC-3 cells was used as an index of drug-induced cytotoxicity, and was assessed by monitoring the release of cytosolic lactate dehydrogenase (LDH). LDH activity was measured in the culture medium and cell lysates (50 mM HEPES, Triton X-100 0.5%, pH 7) using a plate reader format as previously described (41). Briefly, 5 μl of cell culture supernatant and lysates were incubated with 0.24 mM NADH in a Tris/NaCl pH 7.2 buffer in 96-well plates for 5 min at 25° C. The reaction was started by the addition of 9.8 mM pyruvate and the consumption of NADH followed at 340 nm for 5 min at 30° C. Percent LDH release was calculated by the following: (supernatant LDH/supernatant LDH+lysate LDH)×100.

PC-3 cells [6] = test: Cytotoxicity as LDH release in PC-3 cells; type: cell-based, human; settings: for LDH release, % of control at 50 µM / LDH rel. % con.: PC-3, 50 μM
Method: as §1, §3

HL-60 cells [7] = test: Cytotoxicity as LDH release in HL-60 cells; type: cell-based, human; settings: for LDH rel. % con. / LDH release, % of control at 50 µM: HL-60, 50 μM; for effect on the toxicity of curcumin (25 μM), LDH release: 48 hours, compound 25 μM (FIG. 20A)
Method: as §1, §3

epithelial cells [8] = test: Extracellular GSH transport, Transwell Studies (Table 3); type: cell-based; settings: 50 μM
HL-60 cells [9] = test: Cellular superoxide by flow cytometry with hydroethidine in HL-60 cells; type: cell-based, human
Method: Flow cytometry. In one exemplary method, cellular superoxide (O2^−) was measured by flow cytometry analysis using hydroethidine (HE) (30). Untreated and treated HL-60 cells (approximately 10^6) were exposed to HE (1 μM from 1 mM stock solutions in DMSO) for 30 min, then were centrifuged at 3,500 g for 15 min, and washed once with 1 ml ice-cold PBS. Cells were re-suspended in 0.5 ml ice-cold PBS, and HE oxidation product, i.e., ethidium bromide (EB), analyzed within 30 min using the red channel (PE) of a FACSCalibur flow cytometer from Becton Dickinson Biosciences (San Jose, Calif.). The total number of cell counts was 25,000.

A549 cells [10] = test: Extracellular GSH in culture supernatants of A549 cells (HPLC-FD, mBBr); type: cell-based, human; settings: 25 μM, 2 hours of treatment (FIG. 19D)
Method: Extracellular levels of GSH. Extracellular GSH in the culture media supernatants of A549, HL-60 and PC-3 cells were measured by an HPLC-FD method of GSH analysis after derivatization with monobromobimane (mBBr). […] The mixture was incubated in dark at room temperature for 30 min, and the reaction was stopped by addition of 10 μl of 70% perchloric acid. The samples were centrifuged at 16,000 g for 10 min and 0.18 ml of supernatant placed in vials for HPLC analysis. The HPLC column used was Synergi 4u Hydro-RP 80A (C18) (150×4.6 mm) from Phenomenex (Torrance, Calif.) and the mobile phase a mixture of 1% acetic acid in H2O (pH adjusted to 4.25 using NH4OH) with 7% acetonitrile. The flow rate was 1 ml·min^−1 and the injection volume 1 μl. The detector excitation and emission wavelengths were […], respectively. The retention time for the GSH derivative was 9.5 min.

[11] = Homo sapiens, 24 hours treatment, read-out: Int. GSH % con.
[12] = PC-3, 25 μM, 24 hours treatment
[13] = Homo sapiens, 48 hours treatment, read-out: LDH rel. % con.
[14] = Homo sapiens, A549, 25 μM, 2 h, read-out: Intracellular GSH levels, % compared to control
[15] = Homo sapiens, A549, 25 μM, 4 h, read-out: Intracellular GSH levels, % compared to control
[16] = Homo sapiens, A549, 25 μM, 24 hours treatment, read-out: Int. GSH % con.

## COc1ccc(CCN(C)CCCC(C#N)(c2ccc(OC)c(OC)c2)C(C)C)cc1OC (racemic) [Verapamil, (±)-verapamil, reference compound]
A549 cells [1]; Homo sapiens, A549, 50 μM, 24 hours treatment, read-out: Int. GSH % con.
  activity at 50 µM: 14%
Epithelial cells [2]; Epithelial cell, 10 μM, read-out: % Increase Over Control (extracellular GSH)
  activation at 10 µM: 113%
HL-60 cells [3]; [11]
  activity at 25 µM: 63%
PC-3 cells [4]; [12]
  activity at 25 µM: 72%
A549 cells [5]; Homo sapiens, A549, 50 μM, 48 hours treatment, read-out: LDH rel. % con.
  LDH release, % of control at 50 µM: 130%
PC-3 cells [6]; [13]
  LDH release, % of control at 50 µM: 93%
HL-60 cells [7]; Homo sapiens, HL-60, 25 μM, 48 hours treatment, read-out: LDH rel. % con.
  LDH release, % of control at 25 µM: 125%

## COc1ccc(-c2coc3cc(O)cc(O)c3c2=O)cc1 [Biochanin A]
A549 cells [1]; A549, 25 μM, 4 h
  Intracellular GSH levels, % compared to control: 36.8 ± 0.9%
A549 cells [1]; A549, 25 μM, 24 hours treatment
  Int. GSH % con.: <5 % con.
Epithelial cells [2]; 50 μM
  % Increase Over Control (extracellular GSH): 133 ^c %
HL-60 cells [3]; 24 hours treatment
  Int. GSH % con.: 20 % con.
PC-3 cells [4]; [12]
  Int. GSH % con.: 81 % con.
A549 cells [5]; 48 hours treatment
  LDH rel. % con.: 230 % con.
Epithelial cells [8]
  % Increase Over Control (extracellular GSH): 174 ^a %
PC-3 cells [6]; 48 hours treatment
  LDH rel. % con.: 127 % con.
HL-60 cells [7]; 48 hours treatment
  LDH rel. % con.: 133 % con.

## CC[n+]1ccccc1-c1c2nc(c(-c3cccc[n+]3CC)c3ccc([n-]3)c(-c3cccc[n+]3CC)c3nc(c(-c4cccc[n+]4CC)c4ccc1[n-]4)C=C3)C=C2.[Mn+3] [MnTE-2-PyP, Manganese(III) meso-tetrakis(N-ethylpyridinium-2-yl)porphyrin, reference compound]
HL-60 cells [9]; HL-60 cells, pre-treated 30 μM for 2 hours (FIG. 21B)
  O2^− levels induced by curcumin after pre-treatment: lower levels of O2^− were detected
HL-60 cells [7]; HL-60 cells
  effect on the toxicity of curcumin (25 μM), LDH release: attenuated

## O=C(/C=C/c1ccccc1)c1ccccc1O [2′-HC, 2′-hydroxychalcone]
A549 cells [1]; [14]
  activity at 25 µM: < 5%
A549 cells [1]; [15]
  activity at 25 µM: < 5%
A549 cells [1]; [16]
  activity at 25 µM: < 5%
A549 cells [10]
  extracellular GSH levels: increased levels of GSH in the supernatants
HL-60 cells [3]; [11]
  activity at 25 µM: < 5%
PC-3 cells [4]; [12]
  activity at 25 µM: 93%
A549 cells [5]; [13]
  LDH release, % of control at 75 µM: 515%
PC-3 cells [6]; Homo sapiens, PC-3, 25 μM, 48 hours treatment, read-out: LDH rel. % con.
  LDH release, % of control at 25 µM: 227%
HL-60 cells [7]; [13]
  LDH release, % of control at 50 µM: 320%

## O=c1cc(-c2ccccc2)oc2cc(O)cc(O)c12 [Chrysin, 5,7 dihydroxyflavone]
HL-60 cells [9]; HL-60 cells (FIG. 21B)
  O2^− levels on adding compound to curcumin treatment: no increase of O2^− levels was observed, but rather a decrease after 4 hours
HL-60 cells [9]; HL-60 cells, 25 μM (FIG. 21B)
  O2^− levels: little change in O2^− levels
A549 cells [1]; A549 cells
  effect on intracellular GSH (words): very potent inducer of intracellular GSH depletion
A549 cells [1]; A549 cells, 25 μM, 2 hours of treatment
  depletion of intracellular GSH: 50%
A549 cells [1]; A549 cells, listed as chrysin
  effect on intracellular GSH (words): one active flavone-like structure for inducing GSH depletion
A549 cells [1]; [14]
  activity at 25 µM: 47.2 ± 4%
A549 cells [1]; [15]
  activity at 25 µM: 5.2 ± 0.5%
A549 cells [1]; [16]
  activity at 25 µM: < 5%
HL-60 cells [3]; HL-60 cells
  effect on intracellular GSH (words): one active flavone-like structure for inducing GSH depletion
HL-60 cells [3]; HL-60 cells (FIG. 20B)
  intracellular GSH levels in presence of curcumin: induced GSH depletion in presence of curcumin
HL-60 cells [3]; HL-60 cells, 50 μM, 24 hours
  depletion of intracellular GSH: 50%
HL-60 cells [3]; Homo sapiens, HL-60, 50 μM, 24 hours treatment, read-out: Int. GSH % con.
  activity at 50 µM: 40%
PC-3 cells [4]; [12]
  activity at 25 µM: 51%
PC-3 cells [4]; PC-3 cells (data not shown)
  intracellular GSH, combination with curcumin: resulted in GSH depletion
PC-3 cells [4]; PC-3 cells, 25 μM, 24 hours
  depletion of intracellular GSH: 50%
A549 cells [5]; A549 cells, 48 hours, etoposide (10 µM)
  effect on the toxicity of etoposide: failed to potentiate etoposide's toxicity
A549 cells [5]; A549 cells, after 48 hours of treatment
  toxicity: relatively low toxicity
A549 cells [5]; [13]
  LDH release, % of control at 75 µM: 225%
PC-3 cells [6]; [13]
  LDH release, % of control at 50 µM: 132%
PC-3 cells [6]; PC-3 cells, 48 hours (FIG. 20C)
  effect on curcumin-induced toxicity, LDH release: potentiated
PC-3 cells [6]; PC-3 cells, 48 hours, compound 10-20 μM
  effect on the toxicities of rotenone (20 μM), 2-ME (50 μM) and etoposide (40 μM): potentiated
HL-60 cells [7]; HL-60 cells, 25 μM (FIG. 20A)
  toxicity: not toxic
HL-60 cells [7]; HL-60 cells
  effect on the toxicity of curcumin (25 μM), LDH release: potentiated the toxicity of curcumin
HL-60 cells [7]; [13]
  LDH release, % of control at 50 µM: 195%

## COc1ccc([C@@H]2Sc3ccccc3N(CCN(C)C)C(=O)[C@@H]2OC(C)=O)cc1 [Diltiazem, reference compound]
Epithelial cells [2]; Epithelial cell, 100 μM, read-out: % Increase Over Control (extracellular GSH)
  activation at 100 µM: 119%

## O=C(/C=C/c1ccccc1)c1ccccc1 [Chalcone]
A549 cells [1]; [14]
  activity at 25 µM: 48.5 ± 2.1%
A549 cells [1]; [16]
  activity at 25 µM: < 5%
A549 cells [10]
  extracellular GSH levels: increased levels of GSH in the supernatants
HL-60 cells [3]; [11]
  activity at 25 µM: 100%
PC-3 cells [4]; [12]
  activity at 25 µM: 119%
A549 cells [5]; [13]
  LDH release, % of control at 75 µM: 150%
PC-3 cells [6]; [13]
  LDH release, % of control at 50 µM: 229%
HL-60 cells [7]; [13]
  LDH release, % of control at 50 µM: 236%

## C[C@@H]1O[C@@H](OC[C@H]2O[C@@H](Oc3c(-c4ccc(O)c(O)c4)oc4cc(O)cc(O)c4c3=O)[C@H](O)[C@@H](O)[C@@H]2O)[C@H](O)[C@H](O)[C@H]1O [Rutin]
A549 cells [1]; A549, 75 μM, 24 hours treatment
  Int. GSH % con.: 86 % con.
Epithelial cells [2]; 100 μM
  % Increase Over Control (extracellular GSH): 160 ^b %
HL-60 cells [3]; 24 hours treatment
  Int. GSH % con.: 98 % con.
A549 cells [5]; 48 hours treatment
  LDH rel. % con.: 187 % con.
PC-3 cells [6]; 48 hours treatment
  LDH rel. % con.: 95 % con.
HL-60 cells [7]; 48 hours treatment
  LDH rel. % con.: 98 % con.
